According to patent publication US10934298B2, “Substituted pyrazolo[1,5-a]pyrimidines for the treatment of medical disorders” (BIAL—BioTech Investments, Inc., priority 2016, dated 2021):

Molecular target: T1, glucocerebrosidase (Gcase) (Homo sapiens, UniProt P04062)
T1 construct: micellar solution containing 10 nM GCase and 100 nM saposin C
T1 sequence (P04062 40-536): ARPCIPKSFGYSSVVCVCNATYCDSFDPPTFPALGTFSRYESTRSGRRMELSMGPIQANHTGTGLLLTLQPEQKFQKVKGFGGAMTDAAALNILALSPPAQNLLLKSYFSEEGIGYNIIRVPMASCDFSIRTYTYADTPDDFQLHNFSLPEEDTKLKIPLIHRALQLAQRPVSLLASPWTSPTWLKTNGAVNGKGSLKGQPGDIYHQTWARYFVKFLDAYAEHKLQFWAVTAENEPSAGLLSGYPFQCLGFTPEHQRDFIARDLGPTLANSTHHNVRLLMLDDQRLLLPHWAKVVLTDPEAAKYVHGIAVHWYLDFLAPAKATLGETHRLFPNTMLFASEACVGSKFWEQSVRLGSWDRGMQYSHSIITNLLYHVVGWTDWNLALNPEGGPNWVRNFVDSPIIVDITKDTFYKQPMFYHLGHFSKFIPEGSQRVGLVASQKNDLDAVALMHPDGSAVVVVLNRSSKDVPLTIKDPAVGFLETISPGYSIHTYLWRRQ
Experiment: Glucocerebrosidase (Gcase) activation assay with 4-methylumbelliferyl-beta-D-glucopyranoside substrate, saposin C and phosphatidylserine/triton micelles, fluorescence readout
Format: biochemical
Procedure, shortened: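 Fluorescence (ex 365 nm, em 440 nm) read after glycine pH 12.5 stop of a 15 min room-temperature reaction. GCase 10 nM plus saposin C 100 nM in PS/triton micelles, pH 4.7, preincubated 30 min with compound; substrate solution held 2 mM 4-MU-beta-glucoside. Screened at 1.0 and 0.1 μM; 8-point, 3-fold curves from 5 μM top.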

Row | Structure (SMILES) | Percent Gcase Activation, 0.1 μM Test Compound (test compound at 0.1 μM) | Percent Gcase Activation, 1 μM Test Compound (test compound at 1.0 μM) | other results
1 | Cc1cc(-c2ccccc2C#N)nc2c(C(=O)N[C@@H](C)C(F)(F)F)cnn12 [III-213] | *** (greater than 20% Gcase activation) | +++ (Gcase activation greater than 60%) | –
2 | Cc1cc(-c2ccc(Cl)cn2)nc2c(C(=O)NC(C3CC3)C(F)(F)F)cnn12 (centres unmarked) [III-208] | ** (Gcase activation in the range of 10% up to 20%) | + (less than 30% Gcase activation) | –
3 | Cc1cc(-c2cncc(Cl)c2)nc2c(C(=O)NC(C3CC3)C(F)(F)F)cnn12 (centres unmarked) [III-119] | *** (greater than 20% Gcase activation) | +++ (Gcase activation greater than 60%) | –
4 | Cc1cc(C)n2ncc(C(=O)Nc3ccc4c(c3)CCC4)c2n1 [IV-5] | – | – | Percent Gease Activation, 0.1 μM Test Compound (0.1 μM test compound, Table 4): ** (Gcase activation in the range of 10% up to 20%); Percent Gease Activation, 1 μM Test Compound (1 μM test compound, Table 4): +++ (Gcase activation greater than 60%)
5 | Cc1cc(-c2ccc3c(c2)OCO3)nc2c(C(=O)NC(C)C(F)(F)F)cnn12 (centres unmarked) [III-289] | – | – | Percent Gcase Activation, 0.1 μM Test Compound (0.1 μM test compound): *** (greater than 20% Gcase activation); Percent Gcase Activation, 1 μM Test Compound (1 μM test compound): +++ (Gcase activation greater than 60%)
6 | Cc1cc(-n2ccc(F)n2)nc2c(C(=O)NC(C3CC3)C(F)(F)F)cnn12 (centres unmarked) [III-172] | *** (greater than 20% Gcase activation) | +++ (Gcase activation greater than 60%) | –
7 | Cc1ccncc1-c1cc(C)n2ncc(C(=O)NC(C3CC3)C(F)(F)F)c2n1 (centres unmarked) [III-274] | * (less than 10% Gcase activation) | +++ (Gcase activation greater than 60%) | –
8 | Cc1cc(-c2cccc(F)c2)nc2c(C(=O)N[C@H](C)C(F)(F)F)cnn12 [III-361] | – | – | Percent Gcase Activation, 0.1 μM Test Compound (0.1 μM test compound): *** (greater than 20% Gcase activation); Percent Gcase Activation, 1 μM Test Compound (1 μM test compound): +++ (Gcase activation greater than 60%)
9 | COc1cc(F)ccc1-c1cc(C)n2ncc(C(=O)NC(C)C(F)(F)F)c2n1 (centres unmarked) [III-150] | *** (greater than 20% Gcase activation) | +++ (Gcase activation greater than 60%) | –
10 | Cc1cc(N2CC(C(C)C)NC2=O)nc2c(C(=O)NC(C3CC3)C(F)(F)F)cnn12 (centres unmarked) [III-320] | – | – | Percent Gcase Activation, 0.1 μM Test Compound (0.1 μM test compound): *** (greater than 20% Gcase activation); Percent Gcase Activation, 1 μM Test Compound (1 μM test compound): +++ (Gcase activation greater than 60%)
11 | Cc1cc(-c2ccccn2)nc2c(C(=O)NC(C)(C)C(F)(F)F)cnn12 [III-408] | – | – | Percent Gcase Activation, 0.1 μM Test Compound (0.1 μM test compound): ** (Gcase activation in the range of 10% up to 20%); Percent Gcase Activation, 1 μM Test Compound (1 μM test compound): +++ (Gcase activation greater than 60%)
12 | Cc1cc(-c2ccc(F)o2)nc2c(C(=O)NC(C3CC3)C(F)(F)F)cnn12 (centres unmarked) [III-264] | *** (greater than 20% Gcase activation) | +++ (Gcase activation greater than 60%) | –
13 | Cc1cc(-c2cccc(Cl)n2)nc2c(C(=O)N[C@@H](C)C(F)(F)F)cnn12 [III-236] | *** (greater than 20% Gcase activation) | +++ (Gcase activation greater than 60%) | –
14 | Cc1cc(-n2ccc(F)n2)nc2c(C(=O)N[C@H](C3CC3)C(F)(F)F)cnn12 [III-173] | *** (greater than 20% Gcase activation) | +++ (Gcase activation greater than 60%) | –
15 | Cc1cncc(-c2cc(C)n3ncc(C(=O)NC(C4CC4)C(F)(F)F)c3n2)c1 (centres unmarked) [III-275] | *** (greater than 20% Gcase activation) | +++ (Gcase activation greater than 60%) | –
16 | Cc1cc(-c2ccns2)nc2c(C(=O)N[C@@H](C3CC3)C(F)(F)F)cnn12 [III-101] | *** (greater than 20% Gcase activation) | +++ (Gcase activation greater than 60%) | –
17 | Cc1cc(-c2cccc(F)c2)nc2c(C(=O)N[C@@H](C)C3CC3)cnn12 [III-56] | – | – | Percent Gcase Activation, 0.1 μM Test Compound (0.1 μM test compound, Table 3A): *** (greater than 20% Gcase activation); Percent Gcase Activation, 1 μM Test Compound (1 μM test compound, Table 3A): +++ (Gcase activation greater than 60%)
18 | COc1ccc(-c2cc(C)n3ncc(C(=O)NC(C)C(F)(F)F)c3n2)cn1 (centres unmarked) [III-271] | *** (greater than 20% Gcase activation) | +++ (Gcase activation greater than 60%) | –
19 | COc1ccc(-c2cc(C)n3ncc(C(=O)N[C@@H](C)C(F)(F)F)c3n2)cn1 [III-273] | *** (greater than 20% Gcase activation) | +++ (Gcase activation greater than 60%) | –

Row | Structure (SMILES) | Percent Gcase Activation, 0.1 μM Test Compound (test compound at 0.1 μM) | Percent Gcase Activation, 1 μM Test Compound (test compound at 1.0 μM) | other results
20 | Cc1cc(N2CCNC2=O)nc2c(C(=O)NC(C3CC3)C(F)(F)F)cnn12 (centres unmarked) [III-228] | * (less than 10% Gcase activation) | +++ (Gcase activation greater than 60%) | –
21 | COc1cc(F)ccc1-c1cc(C)n2ncc(C(=O)N[C@@H](C)C3CC3)c2n1 [III-146] | *** (greater than 20% Gcase activation) | +++ (Gcase activation greater than 60%) | –
22 | Cc1cc(-c2cccnc2F)nc2c(C(=O)NC(C3CC3)C(F)(F)F)cnn12 (centres unmarked) [III-85] | – | – | Percent Gcase Activation, 0.1 μM Test Compound (0.1 μM test compound, Table 3A): *** (greater than 20% Gcase activation); Percent Gcase Activation, 1 μM Test Compound (1 μM test compound, Table 3A): +++ (Gcase activation greater than 60%)
23 | Cc1cc(-c2cncc(Cl)c2)nc2c(C(=O)N[C@H](C)C(F)(F)F)cnn12 [III-201] | *** (greater than 20% Gcase activation) | +++ (Gcase activation greater than 60%) | –
24 | Cc1cc(-c2cncc(Cl)c2)nc2c(C(=O)NC(C)C(F)(F)F)cnn12 (centres unmarked) [III-200] | *** (greater than 20% Gcase activation) | +++ (Gcase activation greater than 60%) | –
25 | Cc1ncccc1-c1cc(C)n2ncc(C(=O)N[C@H](C3CC3)C(F)(F)F)c2n1 [III-376] | – | – | Percent Gcase Activation, 0.1 μM Test Compound (0.1 μM test compound): * (less than 10% Gcase activation); Percent Gcase Activation, 1 μM Test Compound (1 μM test compound): + (less than 30% Gcase activation)
26 | Cc1cc(-c2cccc(-c3ncccn3)n2)nc2c(C(=O)NC(C3CC3)C(F)(F)F)cnn12 (centres unmarked) [III-175] | * (less than 10% Gcase activation) | + (less than 30% Gcase activation) | –
27 | Cc1cc(-c2ccns2)nc2c(C(=O)N[C@H](C3CC3)C(F)(F)F)cnn12 [III-100] | *** (greater than 20% Gcase activation) | +++ (Gcase activation greater than 60%) | –
28 | Cc1cc(-c2c(F)cccc2C#N)nc2c(C(=O)N[C@@H](C)C3CC3)cnn12 [III-397] | – | – | Percent Gcase Activation, 0.1 μM Test Compound (0.1 μM test compound): ** (Gcase activation in the range of 10% up to 20%); Percent Gcase Activation, 1 μM Test Compound (1 μM test compound): +++ (Gcase activation greater than 60%)
29 | Cc1cncc(-c2cc(C)n3ncc(C(=O)N[C@H](C4CC4)C(F)(F)F)c3n2)c1 [III-276] | *** (greater than 20% Gcase activation) | +++ (Gcase activation greater than 60%) | –
30 | CCc1cc(N2CCN(C(C)C)C2=O)nc2c(C(=O)NC(C3CC3)C(F)(F)F)cnn12 (centres unmarked) [III-224] | ** (Gcase activation in the range of 10% up to 20%) | +++ (Gcase activation greater than 60%) | –
31 | Cc1cc(-c2ncccc2F)nc2c(C(=O)NC(C3CC3)C(F)(F)F)cnn12 (centres unmarked) [III-203] | *** (greater than 20% Gcase activation) | +++ (Gcase activation greater than 60%) | –
32 | Cc1cc(N2CCCC(F)(F)C2)nc2c(C(=O)NC(C)C(F)(F)F)cnn12 (centres unmarked) [III-179] | *** (greater than 20% Gcase activation) | +++ (Gcase activation greater than 60%) | –
33 | CCCO[C@H]1CC[C@H](NC(=O)c2cnn3c(C)cc(-c4cccnc4)nc23)CC1 [III-40] | – | – | Percent Gcase Activation, 0.1 μM Test Compound (0.1 μM test compound, Table 3A): * (less than 10% Gcase activation); Percent Gcase Activation, 1 μM Test Compound (1 μM test compound, Table 3A): + (less than 30% Gcase activation)
34 | Cc1cc(C)n2ncc(C(=O)NC3(C4CC4)CC3)c2n1 [III-12] | – | – | Percent Gcase Activation, 0.1 μM Test Compound (0.1 μM test compound, Table 3A): * (less than 10% Gcase activation); Percent Gcase Activation, 1 μM Test Compound (1 μM test compound, Table 3A): + (less than 30% Gcase activation)
35 | Cc1cc(-c2cccc(-c3ncccn3)c2)nc2c(C(=O)NC(C3CC3)C(F)(F)F)cnn12 (centres unmarked) [III-417] | – | – | Percent Gcase Activation, 0.1 μM Test Compound (0.1 μM test compound): *** (greater than 20% Gcase activation); Percent Gcase Activation, 1 μM Test Compound (1 μM test compound): +++ (Gcase activation greater than 60%)
36 | CCOc1cccc(-c2cc(C)n3ncc(C(=O)NC(C)C(F)(F)F)c3n2)c1 (centres unmarked) [III-76] | – | – | Percent Gcase Activation, 0.1 μM Test Compound (0.1 μM test compound, Table 3A): *** (greater than 20% Gcase activation); Percent Gcase Activation, 1 μM Test Compound (1 μM test compound, Table 3A): +++ (Gcase activation greater than 60%)
37 | Cc1cc(N2CCCC(F)(F)C2)nc2c(C(=O)N[C@H](C3CC3)C(F)(F)F)cnn12 [III-94] | *** (greater than 20% Gcase activation) | +++ (Gcase activation greater than 60%) | –
